From US11578092B2, “Compound for preventing or treating neurodegenerative disease and application thereof” (Shanghai Pharmaceuticals Holding Co., Ltd., priority 2018, dated 2023)

Key:
[1] = tested on: APP/PS1 transgenic male mice (AD mice); test: Morris water maze test in AD mice; format: in vivo; settings: 50 mg/kg daily intragastric, 90 days; for learning and memory abilities of AD mice after administration: Morris water maze
Method: Twenty 5-6-month-old APP/PS1 transgenic male mice (AD mice) were selected and divided into a model group and a polysaccharide administration group according to the random number table method. PL402 was administered daily by intragastric administration (50 mg/kg), and 10 non-transgenic mice were used in a negative control group (without administration). After 90 days of consecutive administration, Morris water maze behavior test was used to detect the effect of PL402 on the learning and cognitive functions of APP/PS1 mice.
In this experiment, a classic Morris water maze test procedure was used, which includes a place navigation test and a space exploration test. The duration of the experiment was 7 days in total, and the space exploration test was introduced at Days 4 and 7.
The selection of animals and the “Morris water maze experiment” was performed as described in Example 3, to detect the effect of PL404 on the animal learning and memory abilities.

[2] = tested on: neuroblastoma cells SK—N—SH cells; test: Total Aβ level in supernatant of SK-N-SH cells (ELISA); format: cell-based; settings: 24 hours
Method: Aβ is the main pathogenic protein of AD. The inventors investigated whether PL402 has an effect on inhibiting Aβ production by detecting the level of Aβ in neuroblastoma cells SK—N—SH cells (which can secrete Aβ).
Culture of SK—N—SH and detection of Aβ: SK—N—SH cells were cultured in DMEM, plated in a 24-well plate and cultured for 24 hours. PL402 (0, 10, 30, 100, or 300 μM) was added, and then incubated for 24 hours. The supernatant was collected and the total Aβ protein level was detected by ELISA.

mouse BV-2 cells = test: Expression of inflammatory factors in LPS-stimulated BV-2 cells (QPCR); format: cell-based; settings: LPS 300 ng/ml, compound 10-300 μM, 24 hours
Method: Neuroinflammation in the brain of AD is one of the causes of cognitive decline. Microglia are key cells that mediate neuroinflammation. The inventors studied whether PL402 is effective in inhibiting neuroinflammation by detecting the expression of inflammatory factors on mouse BV-2 cells.
BV-2 cells culture and stimulation: BV-2 cells were cultured in DMEM, plated in a 24-well plate and cultured for 24 hours. Then PL402 (0, 10, 30, 100, or 300 μM) and LPS (300 ng/ml) were added, and then incubated for 24 hours. RNA was extracted with Trizol, and the expression of related inflammatory factors was detected by QPCR.

[3] = tested on: human neural progenitor cell (differentiated by humanized iPSC); test: EdU incorporation, proliferation of human neural progenitor cells; format: cell-based; settings: dosage 0, 1, 3, 10, 30 or 100 μM, vs untreated control
Method: The inventors investigated whether PL404 has the effect on promoting proliferation by detecting the EdU incorporation of a human neural progenitor cell (differentiated by humanized iPSC). The dosage of PL404 was 0, 1, 3, 10, 30, or 100 μM.
The method similar to that in Example 7 was used, except that compound PL404 was replaced by PL405, and by detecting the EdU incorporation of human neural progenitor cells, whether PL405 has the effect on promoting proliferation was investigated.

Row | Structure (SMILES) | learning and memory abilities of AD mice after administration [1] | escape latency (latency to reach the platform) compared with the model group ([1]; place navigation test, 50 mg/kg) | production of Aβ (total Aβ protein level) ([2]; compound 10-300 μM, ELISA of supernatant) | concentration at which the inhibition of Aβ production is most desirable ([2]; tested 0, 10, 30, 100, 300 μM) [µM] | expression of inflammatory factor IL-1β (mouse BV-2 cells) | expression of inflammatory factor IL-6 (mouse BV-2 cells) | increase of human neural progenitor cell proliferation level compared with the control group [3]
1 | COc1cc(/C=C/C(=O)O[C@@H]2OC(C)[C@H](O[C@@H]3OC(C)[C@H](O)C(O)C3O)C(O)C2O)ccc1O (stereo partly drawn) [PL402] | significantly improved | statistically significant decrease | significantly inhibit | 100 | significantly inhibit | significantly inhibit | –
2 | COc1cc(/C=C/C(=O)OC2C(C)OC(OC3C(C)OC(O)C(O)C3O)C(O)C2O)ccc1O (stereo not drawn) [PL405] | – | – | – | – | – | – | about 60%
3 | COc1cc(/C=C/C(=O)OC2C(C)OC(OC3C(C)OC(O)C4OC(C)(C)OC34)C(O)C2O)ccc1O (stereo not drawn) [PL404] | significantly improved | – | – | – | – | – | about 30%
